# Article PMC2990756, “Quantitative High-Throughput Screening Identifies 8-Hydroxyquinolines as Cell-Active Histone Demethylase Inhibitors” (PLoS ONE, 2010)
# pIC50: −log10 of the molar value. Like-named read-outs stand apart in the source and are kept apart here.
# Legend:
# Assay type in all cases: biochemical
# [1] = biological target: T1, formaldehyde dehydrogenase (FDH) (Pseudomonas putida, UniProt P46154); experiment: FDH coupling enzyme counterscreen; conditions: for qHTS Data: jmjd2e fdh CurveClass / pIC50: Table S1, FDH counterscreen; for pIC50: unit not in table, from Figure 2, read-out: qHTS Data: jmjd2e fdh IC50
# T1 construct: purchased Sigma-Aldrich
# T1 sequence (P46154 whole entry): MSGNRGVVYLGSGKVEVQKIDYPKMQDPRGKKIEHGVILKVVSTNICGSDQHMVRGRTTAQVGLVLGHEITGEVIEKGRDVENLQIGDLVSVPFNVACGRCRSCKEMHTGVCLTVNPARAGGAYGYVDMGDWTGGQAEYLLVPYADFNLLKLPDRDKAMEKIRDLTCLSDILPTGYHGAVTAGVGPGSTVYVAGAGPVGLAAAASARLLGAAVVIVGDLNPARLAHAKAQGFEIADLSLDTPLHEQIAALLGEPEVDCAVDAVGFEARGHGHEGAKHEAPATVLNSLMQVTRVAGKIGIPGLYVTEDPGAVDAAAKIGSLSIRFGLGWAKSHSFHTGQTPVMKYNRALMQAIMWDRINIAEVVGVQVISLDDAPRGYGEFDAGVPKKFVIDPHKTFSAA
# Description: Dimethylsulfoxide certified ACS grade (DMSO) was from Fisher, Inc. HEPES buffer was obtained from Gibco. […] Black solid-bottom 1,536-well assay plates were from Greiner Bio-One (Monroe, NC).
# [2] = biological target: T2, JMJD2E (KDM4E) (Homo sapiens, UniProt B2RXH2); experiment: qHTS fluorescence FDH-coupled JMJD2E demethylase assay; conditions: for pIC50: Table S1, unit not in table, from Figure 2, read-out: qHTS Data: jmjd2e IC50
# T2 construct: The catalytic domain of human JMJD2E (residues 1–337); His6 (N); made in house; host or cells: E. coli
# T2 sequence (B2RXH2 1-337): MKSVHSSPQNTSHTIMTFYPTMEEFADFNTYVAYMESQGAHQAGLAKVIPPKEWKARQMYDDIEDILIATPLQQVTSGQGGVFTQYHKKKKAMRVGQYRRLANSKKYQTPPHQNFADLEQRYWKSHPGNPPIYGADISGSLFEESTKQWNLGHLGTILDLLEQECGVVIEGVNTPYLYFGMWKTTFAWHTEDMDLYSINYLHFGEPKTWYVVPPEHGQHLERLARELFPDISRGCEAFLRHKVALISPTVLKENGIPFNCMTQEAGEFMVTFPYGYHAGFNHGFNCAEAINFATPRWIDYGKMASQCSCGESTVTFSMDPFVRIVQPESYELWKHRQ
# [3] = biological target: T3, JMJD2E (Homo sapiens, UniProt B2RXH2); experiment: JMJD2E FDH-coupled assay under low and high iron conditions (iron chelation profile); parameters: The catalytic domain of human JMJD2E (residues 1–337); His6 (N); made in house; host or cells: E. coli; conditions: for pIC50 / qHTS Data: jmjd2e fas20um CurveClass / qHTS Data: jmjd2e fas2.5um Curve comment: Table S1; for pIC50: unit not in table, from Figure 2
# T3 sequence (B2RXH2 1-337): T2 sequence (B2RXH2 1-337)
# Protocol: The prioritized compounds were also evaluated in the screening assay using two different ferrous ion concentrations (termed high iron and low iron, respectively), in order to assess their propensity for iron chelation.
# The ratio of IC50 values under high iron to low iron was calculated for each compound.
# [4] = high iron, head says 20 µM FAS, read-out: qHTS Data: jmjd2e fas20um IC50
# [5] = low iron 2.5 µM FAS, read-out: qHTS Data: jmjd2e fas2.5um IC50
SMILES,qHTS Data: jmjd2e fdh CurveClass [1],pIC50 [1],pIC50 [2],"pIC50 [3, 4]","pIC50 [3, 5]",qHTS Data: jmjd2e fas20um CurveClass ([3]; high iron),qHTS Data: jmjd2e fas2.5um Curve comment ([3]; low iron 2.5 µM FAS),"IC50 ([1]; Figure 2, 0.025 U/mL FDH, 10 µM formaldehyde, read-out: IC50 values in μM, FDH)","IC50 ([2]; Figure 2, 100 nM JMJD2E, 10 µM FAS, read-out: IC50 values in μM, qHTS)","IC50 ([3]; Figure 2, high iron 25 µM Fe(II), read-out: IC50 values in μM, High Fe)"
COc1ccc(-n2c(C)cc(/C=N/Nc3nnc(C)n3N)c2C)cc1.Cl [compound 22416865],Poor quality curve,4.55,6.15,5.30,5.30,–,–,–,–,–
CCN1/C(=C\c2ccc3ccccc3[n+]2CC)Sc2cc(C)ccc21.[I-] [compound 24782097],Poor quality curve,4.65,5.85,4.85,4.75,Poor quality curve,Poor quality curve,–,–,–
Cc1nc(-c2coc3c(O)c(O)ccc3c2=O)cs1 [compound 50110018],Poor quality curve,4.75,5.15,4.80,5.15,–,–,–,–,–
C/C(=N\Nc1ccc2nncn2n1)c1ccccn1 [compound 26664046],Poor quality curve,4.45,5.00,5.05,5.05,–,–,–,–,–
Oc1ccc(NCc2ccccc2OCc2ccccc2F)cc1 [SID 17385881],–,–,–,–,–,–,–,> 57 µM,5 µM,14.1 µM
COc1ccc(NC(=O)CC2Sc3ncnn3C2=O)cc1 (stereo not shown) [compound 7968088],–,6.55,5.70,4.90,5.75,–,–,–,–,–
CNCCc1ccc(O)c(O)c1.Cl [compound 50106160],Poor quality curve,5.50,4.85,4.95,5.35,–,–,–,–,–
CCN(CC)c1ccc(N=Cc2c(C)[nH]c3ccccc23)cc1 [compound 22412852],Inactive,–,6.10,5.10,4.90,–,Poor quality curve,–,–,–
O=C(CC1Sc2ncnn2C1=O)Nc1ccc(Br)cc1 (stereo not shown) [compound 7966079],–,6.55,5.65,6.00,5.70,–,–,–,–,–
Cc1ccc(C)c(S(=O)(=O)N2CCN(Cc3ccc(O)c4ncccc34)CC2)c1 [compound 24838962],Inconclusive,–,5.45,–,5.00,Inactive,–,–,–,–
O=C(OC1Cc2c(O)cc(O)cc2OC1c1cc(O)c(O)c(O)c1)c1cc(O)c(O)c(O)c1 (stereo not shown) [compound 26749738],Poor quality curve,4.85,5.60,5.15,5.85,–,–,–,–,–
Cc1ccc(N2C(=O)CC(Sc3ncn[nH]3)C2=O)cc1C (stereo not shown) [compound 14726720],–,6.66,5.90,–,5.85,Inactive,–,–,–,–
Cl.Nc1ccn([C@@H]2O[C@H](CO)[C@@H](O)[C@@H]2O)c(=O)n1 [compound 50106080],Inactive,–,6.05,5.10,–,–,Inactive,–,–,–
O=C(O)c1cccnc1C(=O)O [compound 11113416],Inactive,–,5.75,4.95,5.10,–,–,–,–,–
O=C(NO)c1ccccc1O [compound 855524],Poor quality curve,5.45,5.00,–,4.90,Inactive,–,–,–,–
COc1ccccc1NC(=S)NNC(=O)c1nn(C)c(C)c1Br [compound 22404294],Inactive,–,5.10,5.60,5.40,–,–,–,–,–
O=[N+]([O-])c1ccc(O)c(/C=N/Nc2ccc(Cl)nn2)c1 [compound 17416266],Inactive,–,5.25,–,5.25,Inactive,–,–,–,–
Cc1cccc(OCC(=O)NCC(=O)N/N=C/c2ccc(O)cc2O)c1 [compound 26671311],Poor quality curve,6.60,5.50,–,5.35,Inactive,–,–,–,–
